The text below walks through data of PMC6981391, “The Selective Class IIa Histone Deacetylase Inhibitor TMP195 Resensitizes ABCB1- and ABCG2-Overexpressing Multidrug-Resistant Cancer Cells to Cytotoxic Anticancer Drugs” (International Journal of Molecular Sciences, 2019).

One test addresses T1, ABCB1 (Homo sapiens, UniProt P08183).
T1 construct: membrane vesicles from High-Five insect cells infected with recombinant baculovirus containing ABCB1
Nature of the test: stimulation of vanadate-sensitive ATPase activity in membrane vesicles (endpoint Pi assay); also inhibits calcein-AM efflux in MDR19-HEK293 and KB-V-1 cells. The format is biochemical.

The next test concerns the target T2, ABCG2 (Homo sapiens, UniProt Q9UNQ0).
T2 sequence (Q9UNQ0 1-655): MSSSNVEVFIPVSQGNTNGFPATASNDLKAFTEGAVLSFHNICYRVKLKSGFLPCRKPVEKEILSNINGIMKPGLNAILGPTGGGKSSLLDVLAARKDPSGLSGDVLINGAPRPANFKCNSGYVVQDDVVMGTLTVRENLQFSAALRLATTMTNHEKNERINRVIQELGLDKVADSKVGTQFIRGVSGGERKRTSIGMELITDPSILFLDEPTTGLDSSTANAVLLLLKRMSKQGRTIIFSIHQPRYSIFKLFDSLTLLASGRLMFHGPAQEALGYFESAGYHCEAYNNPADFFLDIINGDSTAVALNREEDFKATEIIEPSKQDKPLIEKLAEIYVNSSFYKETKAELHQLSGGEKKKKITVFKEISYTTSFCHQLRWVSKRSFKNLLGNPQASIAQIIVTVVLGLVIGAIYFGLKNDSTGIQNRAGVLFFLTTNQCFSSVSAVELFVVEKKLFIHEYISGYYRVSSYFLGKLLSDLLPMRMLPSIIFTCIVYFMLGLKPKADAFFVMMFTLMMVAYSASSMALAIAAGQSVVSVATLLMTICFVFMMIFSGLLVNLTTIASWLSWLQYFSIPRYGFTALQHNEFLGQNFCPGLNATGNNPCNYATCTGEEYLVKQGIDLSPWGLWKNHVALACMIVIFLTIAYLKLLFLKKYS
Nature of the test: biochemical.

T1 sequence (P08183 whole entry): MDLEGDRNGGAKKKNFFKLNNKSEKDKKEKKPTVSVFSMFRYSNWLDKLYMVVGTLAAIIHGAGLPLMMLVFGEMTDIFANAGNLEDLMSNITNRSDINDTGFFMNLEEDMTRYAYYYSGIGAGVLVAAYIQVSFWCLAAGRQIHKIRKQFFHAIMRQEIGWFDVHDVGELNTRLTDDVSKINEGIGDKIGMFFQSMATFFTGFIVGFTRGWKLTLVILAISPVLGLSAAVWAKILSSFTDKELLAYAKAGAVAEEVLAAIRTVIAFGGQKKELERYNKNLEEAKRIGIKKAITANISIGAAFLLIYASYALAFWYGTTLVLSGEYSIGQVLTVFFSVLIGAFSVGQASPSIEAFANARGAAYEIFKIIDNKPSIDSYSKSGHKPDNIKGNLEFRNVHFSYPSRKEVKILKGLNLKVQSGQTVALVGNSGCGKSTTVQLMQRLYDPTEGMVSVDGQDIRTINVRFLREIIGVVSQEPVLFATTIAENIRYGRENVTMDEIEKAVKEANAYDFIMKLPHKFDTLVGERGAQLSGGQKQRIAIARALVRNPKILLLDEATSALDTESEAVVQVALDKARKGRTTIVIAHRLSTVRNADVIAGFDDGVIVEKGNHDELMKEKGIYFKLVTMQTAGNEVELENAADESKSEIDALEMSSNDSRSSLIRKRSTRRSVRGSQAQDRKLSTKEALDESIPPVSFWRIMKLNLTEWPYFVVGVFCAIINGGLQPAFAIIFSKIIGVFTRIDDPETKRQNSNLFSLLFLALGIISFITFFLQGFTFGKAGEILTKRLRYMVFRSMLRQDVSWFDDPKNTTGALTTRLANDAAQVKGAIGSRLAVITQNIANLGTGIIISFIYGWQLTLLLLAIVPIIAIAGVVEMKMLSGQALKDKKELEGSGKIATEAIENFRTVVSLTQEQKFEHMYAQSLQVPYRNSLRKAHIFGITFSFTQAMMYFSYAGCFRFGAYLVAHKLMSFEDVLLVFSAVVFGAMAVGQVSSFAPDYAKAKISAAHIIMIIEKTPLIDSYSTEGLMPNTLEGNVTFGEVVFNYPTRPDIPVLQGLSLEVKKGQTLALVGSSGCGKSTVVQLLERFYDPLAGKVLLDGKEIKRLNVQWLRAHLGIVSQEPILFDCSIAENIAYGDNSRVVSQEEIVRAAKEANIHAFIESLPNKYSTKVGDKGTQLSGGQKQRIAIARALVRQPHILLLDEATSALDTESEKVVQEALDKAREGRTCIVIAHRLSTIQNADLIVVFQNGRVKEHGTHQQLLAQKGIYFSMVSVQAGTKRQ

As for `CC(C)(CNC(=O)c1cccc(-c2noc(C(F)(F)F)n2)c1)c1coc(-c2ccccc2)n1` [TMP195], the EC50 at ABCB1 is about 2 µM; at ABCG2 it was about 0.4 µM.

A word on the EC50: it is the midpoint of the concentration-response curve.
